Experimental data from paper PMC8778264 (Nanomaterials, 2022).

Columns and labels:
Format in all cases: cell-based
CRL-1739 cells [1] = test: Cellular uptake and cell apoptosis analysis by flow cytometry (Annexin V-FITC / propidium iodide); details: 0.05 and 2 mg/mL, 24 h
Procedure: (§1) The control group comprised untreated cells and fresh culture medium without test compounds. CRL-1739 cells were seeded to a 5 × 10^4 cell density in 24-well plates. […] After the administration of formulations, cells were washed with PBS three times. The cells were trypsinized and suspended in fresh PBS with 10% fetal bovine serum.
The suspended formulations were incubated with 5 μL of Annexin V-FITC and 5 μL of propidium iodide for 15 min at room temperature in the dark. The cell suspensions were analyzed by using Guava easy Cyte in terms of cellular uptake.

CRL-1739 cells [2] = test: Fluorescence microscopy (Hoechst 33342)
Procedure: as §1
After treatment with the formulations, CRL-1739 cells were fixed and stained with Hoechst 33342 (blue). The cellular uptake of formulations was performed with a Nikon eclipse fluorescence microscope (Nikon, Japan) at a magnification of 1000×. The stained cell nuclei were evaluated.

CRL-1739 cells [3] = test: In vitro cytotoxicity (MTT assay); details: 48 h treatment
Procedure: The cell line was cultured in DMEM supported with 10% fetal bovine serum, 0.5 mg/mL glutamine/penicillin streptomycin at 37 °C and 5% CO2. […] Ninety-six well flat-bottom plates and […] DMEM were used for the seeding procedure. […] Then, 100 μL of MTT solution (5 mg/mL) was put into each well and incubated at 37 °C. The culture medium was removed. Then, 200 μL of dimethysulfoxide was added to obtain the dissolution of the MTT formazan crystals. The absorbance was read at 570 nm using a microplate reader.

Structure (SMILES): Cc1ccc(NC(=O)c2ccc(CN3CCN(C)CC3)cc2)cc1Nc1nccc(-c2cccnc2)n1 [IMT, Imatinib]
- cellular uptake (fluorescence intensity, flow cytometry) (CRL-1739 cells [1]): lower fluorescence intensity than cells administered with F16 and F16-IMT
- IMT location and distribution inside cells (fluorescence) (CRL-1739 cells [2]): low fluorescence when compared to F16 and F16-IMT
- cell viability (CRL-1739 cells [3]): 70.5%
